Biological target: T1, human MAGL (hMAGL) (Homo sapiens, UniProt Q99685)
T1 sequence (Q99685 1-303): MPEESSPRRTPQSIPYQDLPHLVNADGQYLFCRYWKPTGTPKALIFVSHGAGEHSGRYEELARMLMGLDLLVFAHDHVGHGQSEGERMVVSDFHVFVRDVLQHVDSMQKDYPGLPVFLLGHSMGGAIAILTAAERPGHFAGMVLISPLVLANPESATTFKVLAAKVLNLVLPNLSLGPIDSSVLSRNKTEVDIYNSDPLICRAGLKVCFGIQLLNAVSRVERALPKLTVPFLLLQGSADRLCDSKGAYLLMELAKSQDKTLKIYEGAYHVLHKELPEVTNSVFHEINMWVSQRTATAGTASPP
Assay: Human MAGL assay
Assay type: biochemical
Settings: 10 μM compound concentration

- inhibition% against hMAGL: over 40%
Substance: 8-prenylnaringenin [NP-2]
